{"source": "patent US12129487B2", "about": "“Method to obtain lymphoid progenitors” (INSERM (Institute National de la Santé et de la Recherche …, priority 2017, dated 2024)", "key": {"MPPs": {"test_system": "MPPs", "experiment": "Impact of CXCL12 concentrations on lymphoid commitment of purified MPPs in vitro", "format": "cell-based, mouse", "conditions": "WT MPPs, CXCL12 1 to 1,000 ng/ml at start, day 4 (FIG. 3)", "procedure": "Purified MPPs were seeded at 450 cells into a 96-well tissue culture plate in DMEM medium supplemented with 10% FBS, 1% penicillin, and the following cytokines: mouse SCF (50 ng/mL), mouse IL-3 (10 ng/mL), human IL-6 (10 ng/mL), mouse IL-7 (5 ng/mL), and human Flt3 (5 ng/mL). Different concentrations of CXCL12 ranging from 1 to 1,000 ng/ml were added at the start of the culture. Cells were cultured at 37° C. in a humidified atmosphere containing 5% CO2, and were harvested after 4 days of culture to analyze HSPCs by flow cytometry."}, "LSK SLAM (HSCs) or MPPs": {"test_system": "LSK SLAM (HSCs) or MPPs", "experiment": "In vitro differentiation assay of purified LSK SLAM or MPPs in cytokine-supplemented feeder-free media", "format": "cell-based, mouse"}}}
{"compound": "CXCL12: C-X-C motif chemokine 12, natural ligand of CXCR4, added to the culture medium", "values": [{"measurement": "myeloid-biased MPP2 proportions and numbers", "setting": "MPPs", "result": "decrease"}, {"measurement": "myeloid-biased MPP3 proportions and numbers", "setting": "MPPs", "result": "decrease"}, {"measurement": "proportions and absolute numbers of MPPs", "setting": "MPPs", "result": "significant and dose-dependent increase"}, {"measurement": "proportions and absolute numbers of lymphoid-biased MPP4", "setting": "MPPs", "result": "significant and dose-dependent increase"}, {"measurement": "appearance of LMPPs", "setting": "LSK SLAM (HSCs) or MPPs; 100 ng/mL added at start of culture of MPPs, regardless of Cxcr4 genotype, less pronounced among mutant cells", "result": "promoted the appearance of LMPPs"}, {"measurement": "proportions and numbers of Cxcr4 1013-bearing MPPs", "setting": "LSK SLAM (HSCs) or MPPs; 100 ng/mL added at start of culture, mutant cells, days 2 and 4 (FIGS. 1 and 2)", "result": "further enhanced"}]}
{"compound": "c1cc(CN2CCCNCCNCCCNCC2)ccc1CN1CCCNCCNCCCNCC1", "note": "[AMD3100]", "values": [{"measurement": "absolute numbers of circulating HSPCs", "setting": "circulating HSPCs; WT mice, single intra-peritoneal injection (5 mg/kg), one hour after injection, blood", "result": "significant increase"}, {"measurement": "absolute numbers of HSPCs in the blood", "setting": "circulating HSPCs; mutant (Cxcr4 1013-bearing) mice, single intra-peritoneal injection, one hour, reaching that of untreated WT mice", "result": "increased"}]}
